Laboratory results taken from the METLIN SMRT retention time set (Domingo-Almenara et al. 2019).

Assay: gradient 5% acetonitrile 3 min, to 50% in 2 min, to 85% in 15 min, held 3 min, 100 µL/min
Conditions: column: Zorbax Extend-C18 2.1 x 50 mm; eluents: water / acetonitrile, 0.1% formic acid
Summary of the method: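 A Zorbax Extend-C18 column (2.1 × 50 mm, 1.8 μm) run at 100 μL/min with water and acetonitrile, both containing 0.1% formic acid, separated mixtures of ~100 pure standards. The HPLC was coupled to a quadrupole time-of-flight mass spectrometer operated in positive and negative ionization mode, with dead and dwell volumes of 40 μL and 900 μL. Each retention time was taken from a computationally picked adduct peak that was then manually inspected.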

Compound | RP-LC retention time [s]
CCCn1c(CCc2ccccc2NS(=O)(=O)c2cnn(CC)c2)nc2ccccc21 | 680
Cc1noc(-c2nn(C)c3c2CN(C(=O)Nc2ccc(C(F)(F)F)cc2)CC3)n1 | 847
Cc1ccc(Cn2nc3c(S(=O)(=O)N4CCN(c5ccc(F)cc5)CC4)cccn3c2=O)cc1 | 1020
COc1ccc(Cc2nc(-c3cccc(-c4ccn[nH]4)c3)no2)cc1 | 911
COc1ccc(-c2nc3c4ccccc4ncn3n2)cc1 | 924
CCCOc1nccnc1NC1CCN(C(=O)c2cccs2)CC1 | 814
Cc1cccc(Cn2cc(C(=O)O)c(S(=O)(=O)N3CCSCC3)n2)c1 | 914
CCS(=O)(=O)c1nc2ccc(NS(=O)(=O)c3cc(C)cc(C)c3)cc2s1 | 936
Cc1cc(N2CCN(C(=O)Nc3ccc(C)c(C)c3)CC2)nc(N2CCOCC2)n1 | 666
CSc1cccc(NC(=O)Cn2c(=O)n(-c3ccccc3)c(=O)c3c2cc(C)n3C)c1 | 861
Cc1ccc(-c2nc3ccccn3c2NC(=O)NCc2ccccc2)cc1 | 657
CCCn1ccc2sc(C)c(C(=O)NCc3cccc(OCC)c3)c2c1=O | 939
CC(=O)Nc1ccc(-n2cnc(C(=O)N3CCN(c4cc(C)ccc4C)CC3)c2)nc1 | 790
O=c1ccc(-c2ccccc2Cl)nn1Cc1nc(-c2ccc3c(c2)OCO3)no1 | 996
CCOC(=O)c1[nH]c(C)c(CN(Cc2ccco2)C(=O)Nc2cccc(F)c2)c1C | 990
CCOC(=O)CSc1nnc(NC(=O)COc2ccccc2)s1 | 798
COc1cc2c(cc1OC)[C@@H](C(=O)Nc1ccc(F)cc1)[C@@H]1CCCCN1C2=O | 773
CSc1ccc(-c2nc3ccc(Cl)cn3c2Nc2ccccc2C)cc1 | 954
COc1cccc(CC(=O)N2CCC3(CC2)N=C(c2ccccc2)NO3)c1 | 802

Compound | RP-LC retention time [s]
Cc1ccc(C)c(N2CCN(c3ccc4cc(S(=O)(=O)N5CCCCC5)ccc4n3)CC2)c1 | 1360
O=C(Nc1ccccc1C(F)(F)F)N1CCCC1c1nc(-c2ccc(F)cc2F)no1 (configuration not stated) | 1030
O=C(CSc1ccc(N2CCCC(C(=O)NC3CC3)C2)nn1)NCc1ccc(C(F)(F)F)cc1 (configuration not stated) | 694
CCOc1ccc(C2Cn3nnc(-c4nc(C5CCCCC5)no4)c3CO2)cc1 (configuration not stated) | 1290
O=C(NCC1(c2cccs2)CCOCC1)C(=O)Nc1cccnc1 | 600
COc1ccc(NC(=O)C2CCN(c3cncnc3N3CCOCC3)CC2)cc1 | 605
CCOc1ccc(NC(=O)N(C)CC2CCOCC2)cc1 | 719
CCOc1ccccc1NC(=O)N(C)CCc1noc(C2CCCCC2)n1 | 1070
Cc1cc(-c2nnc(-c3ccco3)o2)c(C)n1CC(=O)NCc1ccc(F)c(Cl)c1 | 882
Cc1ccc(Cl)cc1N1CCN(c2ccc3cc(S(=O)(=O)N4CCCC4)ccc3n2)CC1 | 1240
Cc1ccc(C)c2c(=O)c3c([nH]c12)CCN(CC(=O)Nc1ccc(F)cc1F)C3 | 648
CCOc1ccc(CC(=O)NCCc2nc3cccnc3n2C)cc1 | 733
COc1ccc(NC(=O)C2CCN(S(C)(=O)=O)c3cc(Cl)ccc3O2)cc1 (configuration not stated) | 918
CC1CCN(c2cc(-n3cnc(C(=O)N4CCc5ccccc54)c3)ncn2)CC1 | 1140
Cc1oc2ncnc(N3CCOCC3)c2c1C(=O)N1CCCc2ccccc21 | 790
COC(=O)C(C)NC(=O)NCc1cccn1Cc1cccc(F)c1 (configuration not stated) | 792
COc1ccc(-c2nn3c(N4CCN(c5ccccn5)CC4)cc(C)nc3c2C)cc1OC | 606
Cc1noc(-c2nn(C)c3c2CN(C(=O)C2(c4ccccc4)CC2)CC3)n1 | 757

Continued, values first:

RP-LC retention time [s] | Compound
765 | CCC(C)C(NC(=O)c1cccc(C)c1)C(=O)Nc1nc2ccccc2[nH]1 (configuration not stated)
1270 | Cc1ccc(S(=O)(=O)N2CC(=O)N(C3CCCC3)C3(CCCCC3)C2)c(C)c1
843 | O=C(CCc1nnc(C(=O)Nc2ccccc2)s1)NCCc1c[nH]c2ccccc12
747 | Cc1ccc(S(=O)(=O)N2CCC(c3nc(C(=O)N4CCCC4)c(C)o3)CC2)cc1C
691 | O=C1COc2c(CCNCCN(C(=O)CCNCCc3ccc(Cl)c(Cl)c3)C3CCCCC3)ccc(O)c2N1
984 | Cc1ccc(S(=O)(=O)N2CCCC(c3nnc(COc4ccccc4)o3)C2)c(C)c1 (configuration not stated)
921 | O=C(Nc1ccc(F)cc1)N1CCN(c2ccc(C(F)(F)F)cn2)CC1
867 | COC(=O)c1c(C)[nH]c(C(=O)N2CCC(CC(=O)NCCCc3ccccc3)CC2)c1C
726 | CCOc1nccnc1NC1CCN(C(=O)c2ccc(C)s2)CC1
753 | O=C(CSc1nnc(COc2ccccc2)o1)NCc1ccco1
830 | CCn1cnc(S(=O)(=O)N2CCCC(C(=O)Nc3ccc(F)c(Cl)c3)C2)c1 (configuration not stated)
1210 | Cc1ccc(-c2nnc(-c3nn(C)c4c3CN(S(=O)(=O)c3ccc(C(C)(C)C)cc3)CC4)o2)cc1
632 | CCCCN1CCN(C(=O)C2CCN(c3nnc(-c4ccc(C)cc4)o3)CC2)CC1
718 | CCn1cc(CCNC(=O)Nc2ccccc2OC)c2cccnc21
772 | Cc1cc(C)n(Cc2ccc(C(=O)N3CCN(c4cc(=O)n(C(C)C)c(=O)n4C(C)C)CC3)o2)n1
711 | Cc1ccccc1CN1CCCN(c2ncccc2-c2nc(C3CC3)no2)CC1
1230 | Cc1oc2ncnc(N3CCCC(C(=O)N4CCN(C5CCCCC5)CC4)C3)c2c1C (configuration not stated)
670 | COc1ccc2c(C)c(CCC(=O)N3CCC(C(N)=O)CC3)c(=O)oc2c1C
832 | Cc1cccc(OCc2nc(CCN(C)C(=O)NCc3ccccc3)no2)c1
641 | COC(=O)CC(=O)Nc1cc2c(cc1N1CCCCC1)n(C)c(=O)n2C
908 | COc1cccc(CCC(=O)N2CC3CN(S(=O)(=O)c4ccc(C)cc4)CC(C2)O3)c1
1040 | Cc1cccc(N2C(=O)C(O)=C(C(=O)c3cccs3)C2c2ccc(Cl)cc2)n1 (configuration not stated)
944 | O/N=C(\CC(O)(C(F)(F)F)C(F)(F)F)c1cccc(Cl)c1
1270 | CCc1nc2cc(-c3noc(-c4ccc(OC)cc4C)n3)ccc2o1
619 | CC(C)c1cc(=O)n(CC(=O)NCCn2nc(-c3cccs3)ccc2=O)cn1

RP-LC retention time [s] | Compound
860 | COc1ccc(C(=O)Nc2ccc3c(c2)Sc2ncccc2C(=O)N3C(C)C)cc1
800 | CC(NC(=O)c1cc2n(n1)CC(C)(C(=O)NC1CCCCC1)N(C)C2=O)c1ccccc1 (configuration not stated)
1030 | O=C(CCc1nc(CSc2nc3ccccc3o2)no1)Nc1nc(-c2ccccc2)cs1
949 | Cc1ccc(C(=O)NC2CCCCCCC2)cc1NC(=O)C1=CSCCO1
882 | O=C(C1CC(=O)N(c2n[nH]c3cccc(F)c23)C1)N1CCC(Cc2ccccc2)CC1 (configuration not stated)
861 | Cc1c(C(=O)C(=O)Nc2ccc3c(c2)OCCO3)c2ccccc2n1C
750 | CCc1cccc(NS(=O)(=O)c2cc3n(c2)CCN(CCOC)C3=O)c1
591 | O=C(c1ccoc1)N1CCCC(c2nnc3n2CCN(C(=O)C2CC2)C3)C1 (configuration not stated)
1080 | Cc1ccc(CNC(=O)C2(C)CCCN(C(=O)Nc3cc(Cl)ccc3C)C2)cc1 (configuration not stated)
818 | O=C(Cc1coc2ccc3ccccc3c12)NCc1ccco1
1200 | COc1ccc(N2CCN(c3cc(SCC(=O)Nc4ccc(C)cc4Cl)ncn3)CC2)cc1
1010 | c1cc(-c2noc(C3CCCCC3)n2)cc(N2CCOCC2)n1
782 | O=C(CC1CCN(C(=O)c2ccc3oc(-c4ccccc4)nc3c2)CC1)N1CCCC1
896 | O=C(CCn1nnc2cc(-c3noc(-c4ccccc4Br)n3)ccc21)N1CCOCC1
817 | CCOc1ccccc1NC(=O)N1CCC2(CC1)NC(=O)c1cc(F)ccc1N2C
808 | COc1cc(-c2nc3ncccn3c2NCc2ccc(Cl)cc2)ccc1OC(C)C
940 | O=C(C(=O)N1CCN(c2ccccc2Cl)CC1)c1c[nH]c2ccccc12
620 | CCOC(=O)C1CCCN(Cc2nc3nc(C)cc(N4CCCCCC4)n3n2)C1 (configuration not stated)
749 | COc1ccc(CNC(=O)c2ccc3c(c2)OCO3)c(OC)c1
841 | CCOc1ccc(N2C(=O)CC(c3ccc(OC)c(OC)c3)CC2=O)cc1
1030 | O=C(Nc1cccc(C(F)(F)F)c1)NC1(c2nc(C3CC3)no2)CCCCC1
719 | Cc1cc(C)n2nc(SCC(=O)NCCc3ccc(Cl)cc3)nc2n1
1150 | Cc1ccccc1Nc1c(-c2cccc(Br)c2)nc2ccc(Br)cn12
661 | CC(=O)NCC(O)c1ccc([N+](=O)[O-])cc1 (configuration not stated)
581 | CCN1CCN(c2nc(F)c3c(c2F)S(=O)(=O)CCN3CCOC)CC1
